Results from publication PMC6361133, “A chemical-genetics approach to study the role of atypical Protein Kinase C in Drosophila” (Development (Cambridge, England), 2019).

Biological target: atypical Protein Kinase C (aPKC), analogue-sensitive aPKC^as4 (Drosophila melanogaster, UniProt A1Z9X0, I342A/T405A)
Test: in vitro […]-ATP peptide kinase assay with immunoprecipitated FLAG-aPKC ([…] ATP, […] MgCl2)
Assay type: biochemical

Chain of atypical Protein Kinase C (aPKC), analogue-sensitive aPKC^as4 (A1Z9X0 whole entry I342A/T405A): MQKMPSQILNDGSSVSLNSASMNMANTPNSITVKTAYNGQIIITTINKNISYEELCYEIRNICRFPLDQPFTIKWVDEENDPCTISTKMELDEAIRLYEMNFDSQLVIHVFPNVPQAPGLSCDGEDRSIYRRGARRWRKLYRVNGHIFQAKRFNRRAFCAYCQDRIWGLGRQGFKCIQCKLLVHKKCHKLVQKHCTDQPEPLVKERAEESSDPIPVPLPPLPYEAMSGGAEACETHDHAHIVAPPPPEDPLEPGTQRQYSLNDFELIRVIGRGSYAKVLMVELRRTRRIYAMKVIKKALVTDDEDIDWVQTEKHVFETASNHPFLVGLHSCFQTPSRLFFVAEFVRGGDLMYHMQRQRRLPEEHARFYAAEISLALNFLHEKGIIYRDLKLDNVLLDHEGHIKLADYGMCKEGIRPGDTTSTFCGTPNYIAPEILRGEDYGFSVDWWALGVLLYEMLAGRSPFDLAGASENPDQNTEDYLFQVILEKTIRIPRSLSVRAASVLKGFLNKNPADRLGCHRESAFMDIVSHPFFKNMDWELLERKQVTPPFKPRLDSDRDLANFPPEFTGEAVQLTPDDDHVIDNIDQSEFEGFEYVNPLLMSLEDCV

Question: `CC(C)(C)n1nc(-c2cccc3ccccc23)c2c(N)ncnc21` [1NA-PP1] was tested. Which IC50 did it give?
Answer: Its IC50 is roughly 100 nM.
